# Laboratory results: patent US20100284925A1, “Small Molecule Intervention for Obesity” (priority 2006, published 2010)
# Entries after “also recorded” stand apart in the source; their conditions may differ.
# Assays:
# [1] = Body weight, food intake, serum parameters and adiposity in normal C57BL/6J mice; type: in vivo
# Description: FIG. 4. Effects of prieurianin on blood insulin, glucose and NEFA levels. Normal and ob/ob mice were treated with 5 mg/kg of prieurianin and serum samples were then collected for (FIG. 4A) insulin; (FIG. 4B) glucose; and (FIG. 4C) non-esterified fatty acid (NEFA) profiling. Results are means of three animals per group for each treatment. Blue column, normal C57BL/6J; and red column, leptin-deficient ob/ob mice.
# Prieurianin was administered intraperitoneally to 12-14 week-old normal C57BL/6J mice and the genetically leptin-deficient ob/ob mice (2 or 5 mg/kg) twice a week for two weeks. Controls received equivolume injections of drug vehicle. Body weight and food intake were measured every three days, and blood samples were collected at the end of the experiment.
# Obesity contributes to hypertension, high serum cholesterol, low HDL cholesterol, and hyperglycemia, thus potentially leading to higher risk of cardiovascular disease. Abdominal obesity especially correlates with metabolic risk factors. The leptin-deficient ob/ob mice are hyperlipidemic, and hyperglycemic. To test whether prieurianin altered the metabolic or endocrinological parameters in addition to appetite, the serum lipid profile, insulin and glucose levels were measured.
# To further examine the effects of prieurianin on the adiposity of the normal C57BL/6J and the ob/ob mice, we measured their visceral and subcutaneous body fat.
# PLTP = assay: Serum PLTP protein by Western blot in normal C57BL/6J mice; type: in vivo; details: normal C57BL/6J mice, 0, 2, 5 and 10 mg/kg
# Description: FIG. 10. Release of adiponectin and PLTP by preadipocytes and adipocytes, and in serum of normal mice. Preadipocytes (B and D) were treated with 2 μM of prieurianin and media collected after 36 hrs for Western blot analysis of either adiponectin (A and B) or PLTP (C and D). Alternatively, five days following differentiation, conditioned media of adipocyets (A and C) were collected for Western analysis. E. Serum of normal C57BL/6J mice given prieurianin or topotecan (0, 2, 5, and 10 mg/kg) was analyzed by Western blot for PLTP.
# [2] = Diet-induced obese (DIO) C57BL/6J (B6) mice; type: in vivo
# Description: FIG. 16. Effects of prieurianin in diet-induced obese C57Bl/6J mice. B6 mice were put on 60% kcal high fat diet for approximately 15 weeks and then divided into groups of 10 and were then treated with either 1 (green) or 3 (brown) mg/kg of prieurianin daily intraperitoneally for three weeks compared to untreated (blue) or vehicle-treated (red) controls.
# FIG. 16A. Average weight changes of mice treated with prieurianin compared to controls through three weeks of treatment.
# FIG. 16B. Average food consumption in B6 mice treated with prieurianin as in FIG. 16A.
# FIG. 16C. Average weight changes in B6 mice treated with prieurianin on an “on-off” cyclical schedule for a total of 4 cycles described in the text. Results are the means S.E. of 10 animals per group, and the 3 mg/kg group with 20 mice.
# The B6 mice were fed a 60% kcal high fat diet for approximately 15 weeks to gain weight and then treated with either 1 or 3 mg/kg of prieurianin intraperitoneally daily for 3 weeks. Mice continued to have access to the 60% kcal diet ad libitum during treatment.
# To circumvent the problem of drug induced tolerance, a new protocol was developed where prieurianin treatment was stopped with the DIO mice, and the mice continued to be maintained on the high fat 60% kcal diet. Four weeks later, the mice were treated again with the following protocol: either 3 mg/kg of prieurianin for 5 days and followed by 5 days of drug holiday (no treatment), with the treatment repeated for 3 more cycles; or 5 mg/kg of prieurianin for 3 days and followed by 5 days of drug holiday, with the treatment repeated for 3 more cycles.
# NIH-3T3/L1 preadipocytes = assay: Differentiation of NIH-3T3/L1 preadipocytes into adipocytes (oil red O or Nile Red staining); type: cell-based
# Description: FIG. 7. […] NIH-3T3/L1 cells were induced into differentiation and simultaneously treated with 2 μM of prieurianin. Differentiated cells were stained with oil red O—FIG. 7A, undifferentiated control.
# Histogram represents A510 nm absorbance of oil red O stain isopropanol extracts from cells. Results are means±S.E. of triplicate experiments.
# (§1) FIG. 19. Effects of bufalin on preadipocyte differentiation, and dedifferentiation/delipidation in adipo-cytes. NIH-3T3/L1 cells were induced into differentiation and simultaneously treated with either 1 μM of bufalin or 2 μM of prieurianin. Differentiated cells were stained with Nile Red. Alternatively, preadipocytes were induced into differentiation and five days following differentiation, cells were treated with either 1 μM of bufalin or 2 μM of prieurianin for an additional five days and followed by staining with Nile Red. Stained cells were evaluated by fluorescence microscopy.
# To determine the effects of prieurianin on the differentiation of preadipocytes to adipocytes, the NIH-3T3/L1 preadipocytes were treated with or without the drug at the same time when induction of differentiation was initiated.
# [3] = tested on: differentiated NIH-3T3/L1 adipocytes; assay: Loss of lipid-positive differentiated adipocytes (oil red O, A510; Nile Red); type: cell-based
# Description: FIG. 8. Prieurianin induced loss of differentiated adipocytes. NIH-3T3/L1 preadipocytes were induced into differentiation. Five days following differentiation, cells were treated with various concentrations (0.5, 1, and 2 μM) of prieurianin for an additional five days and followed by staining with oil red O. Micrographs were obtained from representatives of triplicate experiments. Isopropanol extracts of positively stained cells were quantified spectrophotometrically at 510 nm as shown in histogram on the right. Results are means±S.E. of triplicate experiments.
# as §1
# To assess whether prieurianin has any effect on the differentiated adipocytes, the preadipocytes were allowed to differentiate into adipocytes and then were further cultured for about five days before treating the adipocytes with prieurianin for an additional five to six days, followed by oil red O staining for the presence of lipid accumulating adipocytes.
# NFκB = assay: NFκB-response element luciferase reporter in L1 preadipocytes; type: cell-based; details: prieurianin 2 μM
# C/EBPβ = C/EBPβ response element luciferase reporter in L1 preadipocytes; type: cell-based; details: prieurianin 2 μM
# Description: FIG. 18. Effects of prieurianin on C/EBPα and β and PPARγ mediated transcription in adipogenesis. Response elements corresponding to C/EBPα and β and PPARγ are cloned into the pGL3 basic luciferase reporter plasmid. L1 preadipocytes were contransfected with the reporter plasmid either in the presence or the absence of the corresponding transcription factors cloned into expression vector, followed by treatment with 2 μM of prieurianin. Cells were harvested for luciferase assay 15-24 hrs later. Results are means±S.E. of triplicate experiments.
# [4] = Cytotoxicity in cell culture studies; type: cell-based; details: data not shown
# [5] = tested on: 20-hydroxyecdysone activity; details: drosophila cells in culture; cited from earlier work
smiles,measurement,setting,value
C=C1[C@@H]([C@@]2(C)[C@@H](OC(C)=O)CC(=O)O[C@](C)(COC(C)=O)[C@@H]2C(=O)OC)[C@@H](OC=O)[C@H](OC(=O)[C@H](O)[C@H](C)CC)[C@@]2(C)[C@H](c3ccoc3)CC(=O)[C@]12O [prieurianin],food intake,[1]; normal C57BL/6J mice,reduced food intake
same,glucose levels,[1]; normal C57BL/6J mice,did not alter the insulin or the glucose levels significantly
same,insulin levels,[1]; normal C57BL/6J mice,did not alter the insulin or the glucose levels significantly
same,serum PLTP activity,[1]; normal C57BL/6J mice,increase in serum PLTP activity
same,body weight,"[1]; normal C57BL/6J mice, 2 or 5 mg/kg i.p. twice a week, two weeks",modest body weight loss
same,percent body fat,"[1]; normal C57BL/6J mice, any dose",not significantly altered
same,NEFA levels,[1]; normal mice,decrease in NEFA levels
same,leptin levels,[1]; normal mice,decrease in leptin levels
same,HDL levels,"[1]; normal mice, serum",remained relatively unchanged
same,total cholesterol level,"[1]; normal mice, serum",remained relatively unchanged
same,triglyceride levels,"[1]; normal mice, serum",no significant changes
same,serum PLTP protein levels,PLTP,a rise in the serum PLTP protein levels
same,decrease in food consumption,[2]; 1 or 3 mg/kg i.p. daily,70-80%
same,weight loss of total body weight,"[2]; 1 or 3 mg/kg i.p. daily, within seven days of treatment",up to 10%
same,body weight course after attained weight loss,[2]; daily treatment for 3 weeks,gradual increase in body weight after week two
same,decrease in body weight,"[2]; on-off cyclical schedule, 3 or 5 mg/kg, 4 cycles",up to 20%
same,reduction of food consumption,[2]; on-off cyclical treatment protocol,approximately 40%
same,preadipocytes differentiation,"NIH-3T3/L1 preadipocytes; 2 μM, in the absence of staurosporine",almost completely inhibited preadipocytes differentiation
same,differentiation of preadipocytes into lipid accumulating adipocytes,"NIH-3T3/L1 preadipocytes; treated at induction of differentiation, oil red O",dose-dependently prevented the differentiation of preadipocytes
same,number of lipid positive cells (oil red O stain A510 absorbance),[3]; 2 μM,almost absent and reduced to a level comparable to the undifferentiated control
same,number of oil red O stained cells,"[3]; adipocytes treated five days after differentiation, 0.5, 1 and 2 μM",profound dose-dependent reduction in the number of oil red O stained cells
same,NFκB-response element mediated transcription,NFκB,induces transactivation from the NFκB-response element mediated transcription
same,transactivation potential of C/EBPβ,C/EBPβ,inhibits the transactivation potential
same,cytotoxicity,[4],relatively non-cytotoxic compared with topotecan; also recorded: relatively non-cytotoxic compared to topotecan
same,antagonism against 20-hydroxyecdysone activity,[5],antagonism against 20-hydroxyecdysone activity
